Assay results taken from patent publication US8846675B2, “N-linked heterocyclic receptor agonists for the treatment of diabetes and metabolic disorders” (Cymabay Therapeutics, Inc., priority 2007, dated 2014).

Biological target: T1, IC-GPCR2 (Homo sapiens, UniProt Q8TDV5)
T1 construct: expressed in transfected cells
T1 sequence (Q8TDV5 1-335 S309L): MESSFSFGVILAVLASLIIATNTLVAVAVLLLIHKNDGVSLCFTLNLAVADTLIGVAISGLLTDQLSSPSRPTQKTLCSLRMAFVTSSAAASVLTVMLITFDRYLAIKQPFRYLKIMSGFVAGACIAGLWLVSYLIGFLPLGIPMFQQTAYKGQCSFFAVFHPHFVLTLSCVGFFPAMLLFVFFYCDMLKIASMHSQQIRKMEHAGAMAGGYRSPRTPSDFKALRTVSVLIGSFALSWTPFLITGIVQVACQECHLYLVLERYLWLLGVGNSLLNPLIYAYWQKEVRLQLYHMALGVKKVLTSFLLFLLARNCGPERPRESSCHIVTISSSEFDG
Assay: Stimulation of cAMP in CHO cell line stably expressing IC-GPCR2 (HTRF cAMP dynamic kit)
Type: cell-based
Conditions: 3 μM compound, relative to maximal activity of 5-Ethyl-2-{4-[4-(4-tetrazol-1-yl-phenoxymethyl)-thiazol-2-yl]-piperidin-1-yl}-pyrimidine (=100%), IC-GPCR2 stably expressing CHO cells, 30 minutes
Procedure: This assay was developed using a stable cell line expressing IC-GPCR-2, generated as follows. IC-GPCR2 (Seq. ID No. 1) was cloned into Gateway pDEST 40vector (Invitrogen), using the Gateway cloning system (invitrogen) according to the manufacturers instructions. A stable cell line was generated by transfecting a 10 cm plate of CHO cells (source) with 8 ug of this construct using Transit-CHO transfection kit (Mirus). CHO cells were plated the day prior to transfection at a density of 3,000,000 cells/plate. Clones were selected using the antibiotic G418 at 500 ug/ml. 23 clones were picked and assayed for the expression of the receptor by measuring changes in intracellular cAMP levels in response to an IC-GPCR2 agonist (Arena 51).
To measure cAMP activity in response to IC-GPCR2 agonist, the clones were plated in 96 well plates at 17500 cells per well. On the day after plating, cells were incubated with the IC-CPCR2 agonist at […] for 30 minutes in Ham's F12 Media (Gibco) with 0.04% DMSO. cAMP was measured using the cAMP dynamic kit from C is Bio (Bedford, Mass.) according to the manufacturers instructions. Briefly, cells were lysed, and cAMP levels determined by competitive immunoassay using D2 labeled cAMP, and europium cryptate tagged anti cAMP antibody. When in close proximity, the D2 and europium cryptate undergo fluorescence resonance energy transfer (FRET), which is measured as a fluorescence ratio (665 nm/620 nm). Unlabelled cAMP in the cell lysatc competed with the D2 labeled cAMP for the europium crypate labeled antibody. The resulting decrease in FRET signal corresponded to intracellular cAMP levels. Fluorescence was read on a BMG Labtech PHERAstar, software version 1.50.
The clone with the greatest response to IC-GPCR2 agonist was selected for the screening assay.
Compounds were dissolved in 100% DMSO to a concentration of […] to provide stock solutions. To determine activity against IC-GPCR2, compounds were incubated with IC-GPCR2 stably expressing cells (described above), at 6-8 concentrations ranging from 0.00003 to 10 micromolar, in 96 well plates, in 50 ul of Hams F12 media for 30 minutes. Cells were plated at 17500 cells per well 1 day before running the assay. All compounds were also screened against the parental CHO cells. cAMP was measured using the cAMP dynamic kit from Cis Bio (Bedford, Mass.), according to the manufacturer's instructions. Briefly, cells were lysed and cAMP levels determined by competitive immunoassay using D2 labeled cAMP, and europium cryptate tagged anti cAMP antibody. When in close proximity, the D2 and europium cryptate undergo fluorescence resonance energy transfer (FRET), which is measured as a fluorescence ratio (665 nm/620 nm). Unlabelled cAMP in the cell lysate competed with the D2 labeled cAMP for the europium crypate labeled antibody. The resulting decrease in FRET signal corresponded to intracellular cAMP levels
To determine percent activity for a tested compound, the FRET signal value obtained at a particular concentration are compared to the Maximal FRET signal value obtained for 5-Ethyl-2-{4-[4-(4-tetrazol-1-yl-phenoxymethyl)-thiazol-2-yl]-piperidin-1-yl}-pyrimidine. The maximal activity of 5-Ethyl-2-{4-[4-(4-tetrazol-1-yl-phenoxymethyl)-thiazol-2-yl]-piperidin-1-yl}-pyrimidine is designated as 100% activity. Typically, the concentration of 5-Ethyl-2-{4-[4-(4-tetrazol-1-yl-phenoxymethyl)-thiazol-2-yl]-piperidin-1-yl}-pyrimidine in the assay was approximately 0.1 μM. The synthesis of 5-Ethyl-2-{4-[4-(4-tetrazol-1-yl-phenoxymethyl)-thiazol-2-yl]-piperidin-1-yl}-pyrimidine is disclosed in co-owned pending U.S. patent application Ser. No. 11/964,461, herein incorporated by reference. Activities of compounds that were tested are shown in Table 1 below and are expressed as % activity at 3 μM compound compared to the maximal activity of 5-Ethyl-2-{4-[4-(4-tetrazol-1-yl-phenoxymethyl)-thiazol-2-yl]-piperidin-1-yl}-pyrimidine at 3 μM.

Row | SMILES | % activity at 3 μM [%] | % activity at 3 μM (3 µM) [%]
1 | CCc1cnc(N2CCC(n3cc(COc4ccc(-n5cnnn5)cc4F)c(C(F)(F)F)n3)CC2)nc1 [Example 66, 5-Ethyl-2-(4-(4-((2-fluoro-4-(1H-tetrazol-1-yl)phenoxy)methyl)-3-(trifluoromethyl)-1H-pyrazol-1-yl)piperidin-1-yl)pyrimidine] | 80.00 | –
2 | CCc1cnc(N2CCC(n3cc(COc4ccc(S(C)(=O)=O)cc4F)c(C(F)(F)F)n3)CC2)nc1 [Example 67, 5-Ethyl-2-(4-(4-((2-fluoro-4-(methylsulfonyl)phenoxy)methyl)-3-(trifluoromethyl)-1H-pyrazol-1-yl)piperidin-1-yl)pyrimidine] | 57.87 | –
3 | CCc1cnc(N2CCC(n3ncc(COc4ccc(-n5cnnn5)cc4F)c3C(F)(F)F)CC2)nc1 [Example 68, 5-Ethyl-2-(4-(4-((2-fluoro-4-(1H-tetrazol-1-yl)phenoxy)methyl)-5-(trifluoromethyl)-1H-pyrazol-1-yl)piperidin-1-yl)pyrimidine] | 74.11 | –
4 | CC1CC(n2ncc(COc3ccc(-n4cnnn4)cc3F)n2)CCN1c1ncc(Cl)cn1 (stereo not drawn) [Example 69, 5-Chloro-2-(4-(4-((2-fluoro-4-(1H-tetrazol-1-yl)phenoxy)methyl)-2H-1,2,3-triazol-2-yl)-2-methylpiperidin-1-yl)pyrimidine] | 55.22 | –
5 | CC1CC(n2ncc(COc3ccc(-n4cnnn4)cc3F)n2)CCN1c1ncc(C(F)(F)F)cn1 (stereo not drawn) [Example 70, 2-(4-(4-((2-Fluoro-4-(1H-tetrazol-1-yl)phenoxy)methyl)-2H-1,2,3-triazol-2-yl)-2-methylpiperidin-1-yl)-5-(trifluoromethyl)pyrimidine] | 66.77 | –
6 | FC(F)(F)c1cnc(N2C3CCC2CC(n2ncc(COc4ccc(-n5cnnn5)nc4)n2)C3)nc1 (stereo not drawn) [Example 71, exo-3-(4-((6-(1H-Tetrazol-1-yl)pyridin-3-yloxy)methyl)-2H-1,2,3-triazol-2-yl)-8-(5-(trifluoromethyl)pyrimidin-2-yl)-8-azabicyclo[3.2.1]octane] | 70.78 | –
7 | CC(C)(C)OC(=O)N1C2CCC1CC(n1ncc(COc3ccc(-n4cnnn4)nc3)n1)C2 (stereo not drawn) [Example 72, endo-tert-Butyl 3-(4-((6-(1H-tetrazol-1-yl)pyridin-3-yloxy)methyl)-2H-1,2,3-triazol-2-yl)-8-azabicyclo[3.2.1]octane-8-carboxylate] | – | 60.55
8 | CC(C)(C)OC(=O)N1C2CCC1CC(n1ncc(COc3ccc(-n4cnnn4)nc3)n1)C2 (stereo not drawn) [Example 73, exo-tert-Butyl 3-(4-((6-(1H-tetrazol-1-yl)pyridin-3-yloxy)methyl)-2H-1,2,3-triazol-2-yl)-8-azabicyclo[3.2.1]octane-8-carboxylate] | – | 84.07
9 | Fc1cnc(N2C3CCC2CC(n2ncc(COc4ccc(-n5cnnn5)nc4)n2)C3)nc1 (stereo not drawn) [Example 74, endo-3-(4-((6-(1H-tetrazol-1-yl)pyridin-3-yloxy)methyl)-2H-1,2,3-triazol-2-yl)-8-(5-fluoropyrimidin-2-yl)-8-azabicyclo[3.2.1]octane] | – | 61.88
10 | Fc1cnc(N2C3CCC2CC(n2ncc(COc4ccc(-n5cnnn5)nc4)n2)C3)nc1 (stereo not drawn) [Example 75, exo-3-(4-((6-(1H-Tetrazol-1-yl)pyridin-3-yloxy)methyl)-2H-1,2,3-triazol-2-yl)-8-(5-fluoropyrimidin-2-yl)-8-azabicyclo[3.2.1]octane] | – | 47.94
11 | C=CCOC(=O)N1CCC(n2ncc(COc3ccc(-n4cnnn4)cc3F)n2)CC1 [Example 76, Allyl 4-(4-((2-fluoro-4-(1H-tetrazol-1-yl)phenoxy)methyl)-2H-1,2,3-triazol-2-yl)piperidine-1-carboxylate] | 56.39 | –

More lines, main results first:

Row | % activity at 3 μM [%] | SMILES | % activity at 3 μM (3 µM) [%]
12 | 79.55 | CCOC(=O)CCCc1cnc(N2CCC(n3ncc(COc4ccc(-n5cnnn5)nc4)n3)CC2)nc1 [Example 58, Ethyl 4-(2-(4-(4-((6-(1H-tetrazol-1-yl)pyridin-3-yloxy)methyl)-2H-1,2,3-triazol-2-yl)piperidin-1-yl)pyrimidin-5-yl)butanoate] | –
13 | 27.86 | CCOC(=O)c1cnc(N2CCC(n3ncc(COc4ccc(-n5cnnn5)nc4)n3)CC2)nc1 [Example 60] | –
14 | 43.59 | O=C(c1cnc(N2CCC(n3ncc(COc4ccc(-n5cnnn5)nc4)n3)CC2)nc1)N1CCOCC1 [Example 61] | –
15 | 32.06 | O=C(c1ncc(Br)cn1)N1CCC(n2ncc(COc3ccc(-n4cnnn4)nc3)n2)CC1 [Example 62, (4-(4-((6-(1H-tetrazol-1-yl)pyridin-3-yloxy)methyl)-2H-1,2,3-triazol-2-yl)piperidin-1-yl)(5-bromopyrimidin-2-yl)methanone] | –
16 | 66.18 | Cc1nc(-n2cncn2)ccc1OCc1cnn(C2CCN(c3ncc(C(F)(F)F)cn3)CC2)n1 [Example 64, 2-(4-(4-((2-Methyl-6-(1H-1,2,4-triazol-1-yl)pyridin-3-yloxy)methyl)-2H-1,2,3-triazol-2-yl)piperidin-1-yl)-5-(trifluoromethyl)pyrimidine] | –
17 | 70.03 | CCc1cnc(N2CCC(n3ncc(COc4ccc(-n5cncn5)nc4C)n3)CC2)nc1 [Example 65, 5-Ethyl-2-(4-(4-((2-methyl-6-(1H-1,2,4-triazol-1-yl)pyridin-3-yloxy)methyl)-2H-1,2,3-triazol-2-yl)piperidin-1-yl)pyrimidine] | –
18 | 69.86 | C=CCOC(=O)N1CCC(n2ncc(COc3ccc(-n4cnnn4)nc3)n2)CC1 [Example 77, Allyl 4-(4-((6-(1H-tetrazol-1-yl)pyridin-3-yloxy)methyl)-2H-1,2,3-triazol-2-yl)piperidine-1-carboxylate] | –
19 | 57.13 | CCCCCc1cnc(N2CCC(n3ncc(COc4ccc(-n5cnnn5)nc4)n3)CC2)nc1 [Example 78, 2-(4-(4-((6-(1H-tetrazol-1-yl)pyridin-3-yloxy)methyl)-2H-1,2,3-triazol-2-yl)piperidin-1-yl)-5-pentylpyrimidine] | –
20 | 77.53 | COc1ccc(-c2cnc(N3CCC(n4ncc(COc5ccc(-n6cnnn6)nc5)n4)CC3)nc2)cc1 [Example 80, 2-(4-(4-((6-(1H-tetrazol-1-yl)pyridin-3-yloxy)methyl)-2H-1,2,3-triazol-2-yl)piperidin-1-yl)-5-(4-methoxyphenyl)pyrimidine] | –
21 | 32.98 | CCOC(=O)c1cnc(N2CCC(n3ncc(COc4ccc(-n5cnnn5)nc4)n3)CC2)s1 [Example 81, Ethyl 2-(4-(4-((6-(1H-tetrazol-1-yl)pyridin-3-yloxy)methyl)-2H-1,2,3-triazol-2-yl)piperidin-1-yl)thiazole-5-carboxylate] | –
